# Where two headings read alike, the source gives them in different places.
# Columns and labels:
# [1] = test system: lymphoblastoid cell lines of ASD phenotype 1 patients; assay: Biolog Phenotype Mammalian MicroArrays, NADH production (redox dye); format: cell-based, human; conditions: cells exposed to the growth factor or cytokine; FIG. 1 (AUC) and Table 1
# Protocol: From all subjects, blood samples were collected and lymphoblastoid cell lines generated. Briefly, tubes containing anticoagulant citrate dextrose (ACD) were used to collect blood samples via venipuncture, in order to ensure that the blood cells remained metabolically active. The tubes were kept at room temperature and processed within 24 hours.
# Cell lines were obtained by immortalization of lymphocytes from blood samples using Epstein-Barr virus.
# Energy production of cells was measured using commercially available Phenotype Mammalian MicroArrays (PM-Ms, Biolog, Hayward, Calif., USA).
# The compound in each well was designed to be used by the cells, either as the sole energy source or as the metabolic effector influencing the utilization of an energy source (α-D-glucose) added in the cell suspension. […] Before plating, cell viability and number were assessed utilizing a BioRad cell counter and a trypan blue dye. The concentration of live cells required for plating was 4×10^5 cells/mL, corresponding to 20,000 cells per well in a volume of 50 μL. […] Cells were incubated for 48 h at 37° C. in 5% CO2, using the modified Biolog IF-M1 medium.
# The Biolog IF-M1 medium was modified for plates PM-M1 to M4 by adding the following to 100 mL of Biolog IF-M1: 1.1 mL of 100× penicillin/streptomycin solution, 0.16 mL of 200 mM glutamine (final concentration 0.3 mM), and 5.3 mL of Fetal Bovine Serum (FBS, final concentration 5%). For plates PM-M5 to M8, 5.5 mM α-D-glucose will be added in place of FBS.
# During the 48-hour incubation, the only energy source the cells had was the chemical in the well. After this first incubation, Biolog Redox Dye Mix MB was added (10 μL/well) and the plates were incubated under the same conditions for an additional 24 hours. As the cells metabolized the energy source, tetrazolium dye in the media was reduced, producing a purple color according to the amount of NADH generated.
# For the last 24 hours of the experiment, the plates were incubated in the Omnilog system, which collects optical density readings every 15 minutes, generating 96 data-points for each well. The system also elaborated the kinetic curve for the metabolic reaction in each well and extrapolated parameters such as slope, highest point, endpoint, area under the curve (AUC), and lag.
# At the end of the 24-hour incubation, the plates were analyzed utilizing a microplate reader with readings at 590 and 750 nm. The first value (A590) indicated the highest absorbance peak of the redox dye and the second value (A750) gave a measure of the background noise. The relative absorbance (A590-750) was calculated per well.
# [2] = Singh K et al., PNAS 2014; cited from earlier work
# [3] = test system: ASD phenotype 1 patients; assay: Challenge test with broccoli sprout extract (sulforaphane), behavioral scores; format: in vivo, humans; conditions: selected patient cohort
# Protocol: (§1) The effects of sulforaphane containing Broccoli sprout extract was observed and quantified in 7 individuals suffering from ASD and previously classified as either phenotype 1 or phenotype 2 patients.
# The extract was prepared from selected broccoli seeds known to have high yield of sulforaphane which were surface-disinfected and grown (sprouted) for 3 days in a commercial sprouting facility under controlled light and moisture conditions.
# [4] = test system: ASD phenotype 2 patients; conditions: for CGI-I: after 3 days of administration; for CGI-I / GGI-S: 7-point scale; for Clinical significance / GGI-S: after challenge test; for ADI-R-RI S score / ADI-R-C S score / ADI-R-SI S score: day 3 of challenge test; for ADI-R-SI S score: baseline 16; for ADI-R-C Change (%) / ADI-R-RI Change (%) / ADI-R-SI Change (%): day 3 vs baseline
# Protocol: as §1
# We describe a procedure consisting of an evaluation of patients with ASD prior and after administration of broccoli sprout extract. The extract was prepared from selected broccoli seeds known to have high yield of sulforaphane which were surface-disinfected and grown (sprouted) for 3 days in a commercial sprouting facility under controlled light and moisture conditions. A boiling water extract was prepared, filtered, cooled, and treated with the enzyme myrosinase (from daikon sprouts) to convert precursor glucosinolates to isothiocyanates. Behavioral evaluation of patients was performed prior, during and after administration of sulforaphane-containing broccoli sprout extract. Baseline evaluation of patients was performed using standard clinical endpoints (ADI-R subscales ADI-SI, ADI-C and ADI-RI).
# Challenge regimen consisted of the administration of a Broccoli Sprout Extract dose corresponding to a total daily dosage of 4 μmol/kg of sulforaphane, administered in 3 doses over the course of the day.
# The assessment of baseline scores and post challenge test scores was conducted by two experienced clinicians with extensive experience in conducting ASD clinical assessments, both of which separately rated the patients. In case of diverging scores in test subscales at baseline or after administration of the challenge test, the lowest severity score was retained. Assessment of clinical endpoints was performed at day 3 of administration of challenge test. Behavioral Outcome Measures: (primary efficacy endpoints): ABC, SRS; CGI-S, CGI-I and ADI-R (ADI-SI, ADI-C, ADI-RI).
# [5] = Example 4 Patient 1 (phenotype 2)
# [6] = Example 4 Patient 2 (phenotype 2)
molecule,measurement,setting,value
IL-6: Th1 cytokine,production of NADH in ASD phenotype 1 cells compared to TDs and non-phenotype 1 cells,[1],significantly lower levels of NADH
IGF-I: insulin-like growth factor 1,production of NADH in ASD phenotype 1 cells compared to TDs and non-phenotype 1 cells,[1],no significant differences
"C[S@@+]([O-])CCCCN=C=S [sulforaphane, 1-isothiocyanato-4R-(methylsulfinyl)butane]",tolerability of administration to humans,[2],well tolerated
same,toxicity,[2],low toxicity
same,"reducing disease severity as measured through the ADI-R, SRS and GGI-S/CGI-I",[3],not effective
same,CGI-I,[4]; [5],2
same,Clinical significance,[4]; [5],Very much improved
same,GGI-S,[4]; [5],4
same,ADI-R-RI S score,"[4]; Example 4 Patient 1 (phenotype 2), baseline 3",3
same,ADI-R-C S score,"[4]; Example 4 Patient 1 (phenotype 2), baseline 12",10
same,ADI-R-SI S score,[4]; [5],12
same,ADI-R-C Change (%),[4]; [5],−20%
same,ADI-R-RI Change (%),[4]; [5],0%
same,ADI-R-SI Change (%),[4]; [5],−33%
same,CGI-I,[4]; [6],2
same,Clinical significance,[4]; [6],Very much improved
same,GGI-S,[4]; [6],4
same,ADI-R-RI S score,"[4]; Example 4 Patient 2 (phenotype 2), baseline 5",4
same,ADI-R-C S score,"[4]; Example 4 Patient 2 (phenotype 2), baseline 11",9
same,ADI-R-SI S score,[4]; [6],14
same,ADI-R-C Change (%),[4]; [6],−22%
same,ADI-R-RI Change (%),[4]; [6],−25%
same,ADI-R-SI Change (%),[4]; [6],−14%
FGF-1(aFGF): growth factor that selectively targets the PI3K-Akt-mTOR pathway,production of NADH in ASD phenotype 1 cells compared to TDs and non-phenotype 1 cells,[1],significantly reduced production of NADH
hGH(Somatotropin): growth factor that selectively targets the PI3K-Akt-mTOR pathway,production of NADH in ASD phenotype 1 cells compared to TDs and non-phenotype 1 cells,[1],significantly reduced production of NADH
PDGF-AB: platelet-derived growth factor AB,production of NADH in ASD phenotype 1 cells compared to TDs and non-phenotype 1 cells,[1],no significant differences
IL-1beta: Th1 cytokine,production of NADH in ASD phenotype 1 cells compared to TDs and non-phenotype 1 cells,[1],significantly lower levels of NADH
